Experiments:
NFκB = NFκB reporter assay (THP1-XBlue-MD2-CD14 cells) stimulated with LPS, SEAP readout; details: peptide 50 μg/ml, LPS 5 ng/ml, overnight (FIG. 1)
mice, lethal endotoxemia = experiment: Mouse model of lethal endotoxemia (LPS 15 mg/kg); format: in vivo
Experimental: FIG. 27A: The mice were treated with SP16 or vehicle and challenged with a lethal dose of LPS (15 mg/kg) and assessed for survival over 72 hours.

Row | Substance | NFκB activity (NFκB inducible SEAP in supernatant) (NFκB) | survival between 30 and 42 hours (mice, lethal endotoxemia) [%] | survival by 72-hrs (mice, lethal endotoxemia; p<0.001 vs. vehicle) [%]
1 | RRRVKFNKPFVFLMIEQNTKRRR (RRRVKFNKPFVFLMIEQNTKRRR; peptide derivative) [SP21] | NFkB inhibition increased as well relative to SP16 |  | 
2 | R R R V K F N K P F V F L M R R R (RRRVKFNKPFVFLMRRR; peptide derivative) [SP22] | NFκB activity was significantly reduced |  | 
3 | R R R V R F N R P F L R R R (RRRVRFNRPFLRRR; peptide derivative) [SP32] | could not be restored with the Poly arginine flanks |  | 
4 | V K F N K P F V F L M (VKFNKPFVFLM; listed as Homo sapiens) [SP20] | did not have an inhibitory effect |  | 
5 | V K F N K P F V F L M I E Q N T K (VKFNKPFVFLMIEQNTK; listed as Homo sapiens) [SP16, 24] | capable of reducing NFκB activity | 100 | 60
6 | V R F N R P F L (VRFNRPFL; peptide derivative) [SP31] | anti-inflammatory activity of the peptide was lost |  | 

Reference: patent US11779630B2, “Peptides and methods of using the same” (SERPIN PHARMA, LLC, priority 2020, dated 2023)
